# Results as given in patent US7585976B2, “Hemiasterlin derivatives and uses thereof” (priority 2002, dated 2009).
# Test: Screening profile of desired properties (growth inhibition, MDR, cytotoxicity, mouse serum stability, mitotic block reversibility, xenografts)
# Settings: properties (i)-(vii)
# Description: In certain embodiments, compounds of the invention were tested for in vitro and in vivo activity. Screening methods included standard in vitro cell growth inhibition assays using a panel of human cancer cell lines, a U937 (ATCC accession number CRL 1593) mitotic block reversibility assay, mouse serum stability assay, MDR assay, and cytotoxicity assay. In certain other emdodiments, compounds of the invention were evaluated in tumor xenograft in vivo growth inhibition assays.
row,Structure (SMILES),"desired properties (growth inhibition IC50, resistance ratio, cytotoxicity in non-dividing cells, mouse serum stability, reversibility ratio, tumor regression, T/C)"
1,"C/C(=C\[C@H](C(C)C)N(C)C(=O)[C@@H](NC(=O)[C@H]1CCCCN1C(C)C(C)C)C(C)(C)C)C(=O)O (single isomer, unassigned) [ER-808662]",exhibiting desired properties
2,CN[C@H](C(=O)N[C@H](C(=O)N(C)[C@H](CN(C)CC(=O)N1CCC[C@H]1C(=O)OC)C(C)C)C(C)(C)C)C(C)(C)c1ccccc1 [ER-806925],exhibiting desired properties
3,CN[C@H](C(=O)N[C@H](C(=O)N(C)[C@H](/C=C(\C)C(=O)O)C(C)C)C(C)(C)C)C(C)(C)c1ccc(OCc2ccccc2)cc1 [ER-805913],exhibiting desired properties
4,CC(C)OC(=O)[C@@H]1CCCN1C(=O)[C@@H]1CCCN1C[C@H](C(C)C)N(C)C(=O)[C@@H](NC(=O)C1CCCCN1C)C(C)(C)C (some centres unmarked) [ER-807904],exhibiting desired properties
5,CCC(CC)(NC)C(=O)N[C@H](C(=O)N(C)[C@H](/C=C(\C)C(=O)O)C(C)C)C(C)(C)C [ER-807850],exhibiting desired properties
6,CN[C@H](C(=O)N[C@H](C(=O)N(C)[C@H](/C=C(\C)C(=O)N1CCC[C@H]1C(=O)OC)C(C)C)C(C)(C)C)C(C)(C)c1ccccc1 [ER-805736],exhibiting desired properties
7,CCC(C)N1CCCC[C@@H]1C(=O)N[C@H](C(=O)N(C)[C@H](/C=C(\C)C(=O)O)C(C)C)C(C)C (some centres unmarked) [ER-808824],exhibiting desired properties
8,CN[C@H](C(=O)N[C@H](C(=O)N(C)[C@H](CN1CCC[C@H]1C(=O)N1CCC[C@H]1C(N)=O)C(C)C)C(C)(C)C)C(C)(C)c1ccccc1 [ER-807328],exhibiting desired properties
9,C/C(=C\[C@H](C(C)C)N(C)C(=O)[C@@H](NC(=O)[C@H]1CCCCN1C)C(C)(C)C)C(=O)O [ER-807102],exhibiting desired properties
10,C/C(=C\[C@H](C(C)C)N(C)C(=O)[C@@H](NC(=O)[C@H]1CCCCN1C(C)C)C(C)(C)C)C(=O)O [ER-807974],exhibiting desired properties
11,CCC(C)N1CCCC[C@@H]1C(=O)N[C@H](C(=O)N(C)[C@H](/C=C(\C)C(=O)O)C(C)C)C(C)(C)C (some centres unmarked) [ER-808368],exhibiting desired properties
